Results on seven compounds are retold here after US9445596B2, “Small molecule compounds for the control of nematodes” (California Institute of Technology, priority 2011, dated 2016).

In one assay the test system is C. elegans. The conditions noted are these: shown previously; cited from earlier work.
Another assay has as its system C. elegans males. The experiment in a line: Attraction assay (long-range, point source). The class given is in vivo. The conditions noted are these: point source on 10 cm plate. On the procedure: 10 cm standard chemotaxis plates were prepared (Bargmann et al., Cell 74:515-27 (1993), which is hereby incorporated by reference in its entirety) and stored at 4° C. until the day before use. Standard 1 cm-diameter copper pipes were sectioned into 1 cm-tall segments to use for the holding chambers. The females/hermaphrodites were isolated overnight, washed 3 times in M9 buffer, and then allowed to wander on a plate pre-conditioned with 50 uL of 1000× streptomycin for 2 hours to kill any bacteria that might produce a false positive attractant. The nematodes were then washed 3 times, and the supernatant from the last wash was placed in a copper chamber, as the control, 1 cm from the border of the 10 cm plate. The nematodes were suspended in M9 within the copper chamber, 1 cm from the border opposite the control chamber. After 6 hours, they were subsequently removed and replaced with 3 μL of 1M sodium azide. 100 C. elegans adult males were isolated overnight, washed several times in ddH2O, and placed at the center of the agar plate. After several hours, males paralyzed within 2 cm of each region were scored. The Chemotaxis Index (Bargmann et al., Cell 74:515-27 (1993), which is hereby incorporated by reference in its entirety) was then used to score male chemotaxis to either point source.

Assay [1] has as its system several of the tested nematode species. The assay can be described thus: Retention assay, several nematode species. The format is in vivo. The conditions noted are these: 1 nM, 1 μM and 1 mM tested. On the procedure: OP50 E. coli was grown on a standard 5 cm agar plate (made with standard Nematode Growth Medium). The bacterial lawn was 16 mm in diameter and was grown overnight at 20° C. before being used in trials. Two 4 mm spots (0.6 μL) were placed on opposite sides of the bacterial lawn (using a transparent template to guide spot placement), and several minutes elapsed for the liquid to settle in before placing nematodes down on the assay. Recording began immediately upon worm placement. 0.6 μL of the control was placed on one side of the lawn, and 0.6 μL of the experimental cue was placed on the other side of the lawn, changing the location of the cue throughout trials between left/right and top/bottom to avoid bias.
Nematodes were isolated by gender at the L4 stage the day before being used in trials as developed adults. Worms were evenly divided and placed at two points equidistant from the foci of the scoring region. Trials were recorded for 20 minutes, and frames were collected for analysis at 1 frame per second. Results were averaged from at least three different trials. For every nematode species in this study, a different total number of worms (using water in both scoring regions) was tested to determine the minimum number of worms necessary for consistent unbiased results over a 20 minute trial. The total number of worms used in the multiple species assays depended on that species' optimal parameters. 10 worms were used for P. redivivus males and females, 20 worms were used for C. elegans males and O. dolichuridae males, and 14 worms were used for S. glaseri males. The Automated Software was used to compare worm occupancy in each scoring region over time, and the Chemotaxis Index (Bargmann et al., Cell 74:515-27 (1993), which is hereby incorporated by reference in its entirety) was adapted to score preference or avoidance to each ascaroside.
A video camera attached to the microscope produced a digital video stream, which was then analyzed. The ratio of the time the average worm spent in each region of interest was calculated for every trial. For ease of implementation, all worms in a single experiment were assumed to be roughly the same size. Thus worm pixels were counted instead of whole worms, allowing fractions of a worm in the region of interest to be taken into account. It also eliminated the need for a shape-based worm identification algorithm, and allowed each frame to be analyzed independently. A band-pass filter was applied to each frame to eliminate the effect of uneven lighting and also accentuate the worms against the background. The worm was then identified after thresholding the filtered image. Throughout each experiment, the locations and sizes of the regions of interest were known. Through the filtering described above, it is known which pixels are occupied by worms and which ones are not. Thus, the ratio of worm-pixels to all pixels inside the region of interest can be calculated to produce the worm-occupancy ratio. This calculation was done for every frame, giving a plot output of worm-occupancy ratio vs. time for each region.

Assay [2] deals with C. elegans hermaphrodites and males. Particulars: cited from earlier work.
Assay [3] relates to P. pacificus strain RSB020. The assay can be described thus: Mouth-form dimorphism assay. The format is in vivo, Pristionchus pacificus. On the procedure: Mouth-form dimorphism assays were performed using P. pacificus strain RSB020. The synthetic compounds dissolved in ethanol (0.5 mM) were diluted with water to make 100 μl solution and subsequently added to 3 mL NGM-agar (1 μM final concentration). The assay plates were seeded with 50 μl OP50 culture in LB medium and incubated overnight at 20° C. to allow bacterial growth. Each replicate included the progeny of two mothers, which were picked as adult hermaphrodites of a consistent age (carrying 4-6 eggs) and which were all from the same P. pacificus culture plate. Following the placement of mothers on assay plates, plates were kept at 20° C. for six days, such that the entire broods were adults at the time of screening. A random sample of 50 hermaphrodite progeny was screened per plate. All animals were screened by differential interference contrast (DIC) microscopy on a Zeiss Axiskop. The following discrete characters were used to discriminate eurystomatous from stenostomatous individuals, respectively: (1) claw-shaped vs. flint-shaped (i.e. dorsoventrally symmetrical) dorsal tooth; (2) presence vs. absence of a subventral tooth; (3) strongly vs. weakly sclerotized stomatal walls. No intermediate mouth-forms were observed. Experiments were conducted in triplicate for each treatment. In assays of responses to compounds of several concentrations (1, 0.3, 0.1, 0.03, 0.01 μM final concentrations), experiments were performed as described above, with the following modifications. To allow greater resolution of responses to lower concentrations, 60 randomly screened individuals in each of five replicates per concentration per compound were assayed. All concentration-curve experiments were performed in parallel using mothers picked randomly from the same two source populations. To prepare large numbers of individual mothers for these experiments, source populations were established from virgin hermaphrodites to constrain the presence of males and were conditioned to well-fed and ambient conditions for at least one generation before mothers were picked for the assays.

In another assay the test system is P. pacificus. The experiment in a line: Dauer formation assay. The format is in vivo, Pristionchus pacificus. The conditions noted are these: synthetic samples; first assayed at 1 μM. On the procedure:
Dauer formation assays were performed as described in Ogawa et al., Curr. Biol. 19:67-71 (2009), which is hereby incorporated by reference in its entirety, using heat- or kanamycin-killed E. coli OP50. Synthetic compounds were dissolved in ethanol (0.5 mM, stock solution) and combined with water to make a […] and subsequently added to 3 mL NGM-agar without peptone ([…], 0.3, 0.1 μM final concentrations).

Assay [4] deals with C. elegans hermaphrodites and males. The experiment in a line: Spot attraction assay. The class given is in vivo. On the procedure:
The spot attraction assays were conducted according to a previously reported method (Pungaliya et al., PNAS 106:7708-13 (2009); Srinivasan et al., Nature 454:1115-18 (2008), which are hereby incorporated by reference in their entirety). For both C. elegans hermaphrodites and males, 50-60 worms were harvested daily at the fourth larval stage (L4) and stored segregatedly by sex at 20° C. overnight, to be used as young adults the following day. For the competition experiments, two conditions were used: 120 nM ascr#3 and 10 nM icas#3 (Condition 1), or 12 μM ascr#3 and 1 μM icas#3 (Condition 2) in water containing 10% ethanol. Aliquots were stored at −20° C. in 20 μL tubes. 10% ethanol in water was used as control.
Attraction assays with hbas#3 were conducted as previously reported (Srinivasan et al., Nature 454:1115-18 (2008); Pungaliya et al., Proc. Natl. Acad. Sci. U.S.A. 106:7708-13 (2009), which are hereby incorporated by reference in their entirety). For the attraction assays, 50-60 hermaphrodite worms were harvested daily at the early fourth larval stage (L4) and stored at 20° C. overnight to be used as young adults the following day. Hbas#3 was dissolved in water containing 10% ethanol. Aliquots were stored at −20° C. in 20 μL tubes. 10% ethanol in water was used as control.

Assay [5] relates to C. elegans hermaphrodites. The experiment in a line: Quadrant chemotaxis assay. The conditions noted are these: see FIGS. 48A-B (spot attraction and quadrant chemotaxis assays); wild-type hermaphrodites. The class given is in vivo. On the procedure: Chemotaxis to both non-indole and indole ascarosides was assessed on 10 cm four-quadrant petri plates (Wicks et al., Dev. Biol. 221:295-307 (2000), which is hereby incorporated by reference in its entirety). Each quadrant was separated from adjacent ones by plastic spacers (FIG. 1B). Pairs of opposite quadrants were filled with nematode growth medium (NGM) agar containing either indole ascarosides or non-indole ascarosides at different concentrations. Animals were washed gently in a S-basal buffer, placed in the center of a four-quadrant plate with ascarosides in alternating quadrants, and scored after 15 minutes and 30 minutes. A chemotaxis index was calculated as: (the number of animals on ascaroside quadrants minus the number of animals on buffer quadrants)/(total number of animals).
Chemotaxis to hbas#3 was assessed on 10 cm four-quadrant petri plates (Wicks et al., Dev. Biol. 221:295-307 (2000), which is hereby incorporated by reference in its entirety). Each quadrant was separated from adjacent ones by plastic spacers. Pairs of opposite quadrants were filled with nematode growth medium (NGM) agar containing different concentrations of hbas#3. Animals were washed gently in an S-basal buffer and placed in the center of a four-quadrant plate with ascarosides in alternating quadrants, and scored after 15 minutes and 30 minutes. A chemotaxis index was calculated as: (the number of animals on ascaroside quadrants minus the number of animals on buffer quadrants)/(total number of animals).

The mark [6] stands for this setting: literature (Pungaliya 2009; Srinivasan 2008).
Setting [7] is: synthetic samples, first assayed at 1 μM.

The structures appear in SMILES notation. Entries after “also recorded” stand apart in the source; their conditions may differ.

In the case of `CC1O[C@@H](O[C@H](C)CCCC/C=C/C(=O)O)[C@@H](O)C[C@H]1O` (some centres unmarked) [ascr#3], the “promotion of dauer entry” value with C. elegans is recorded as “individually promote dauer entry”. For the same compound, in the assay on C. elegans males, the “lowest amount eliciting male attraction (as low as)” value worked out at 5 femtomol and the “male attraction from a distance / chemotaxis towards a point source” value is given as “chemotax towards”. Also, in assay [1], the “preference for areas conditioned by the ascaroside” value is reported as “preferred”. The “most active amount for attraction in C. elegans” value in assay [2] (from 1 μM concentration, previous study (Srinivasan 2008)) is listed as roughly 1 pmol. Moreover, in assay [2] (high dauer-inducing concentrations, previous studies), the “response of social and solitary hermaphrodites” value was “strongly deter”. Moreover, in assay [2] (setting [6]), the attraction of males result is given as “strongly attracts males” and the response of hermaphrodites entry was “repels hermaphrodites”.
As for `C[C@H](CC/C=C/C(=O)O)O[C@@H]1O[C@@H](C)[C@H](O)C[C@H]1O` [ascr#7], the “preference for areas conditioned by the ascaroside” value in assay [1] was “preferred”.
As to `C[C@H](CCCCC(=O)O[C@@H]1C[C@@H](O)[C@H](O[C@H](C)CCCCC(=O)O)O[C@H]1C)O[C@@H]1O[C@@H](C)[C@H](O)C[C@H]1O` [dasc#1, (R)-6-(((2R,3R,5R,6S)-5-(((R)-6-(((2R,3R,5R,6S)-3,5-dihydroxy-6-methyltetrahydro-2H-pyran-2-yl)oxy)heptanoyl)oxy)-3-hydroxy-6-methyltetrahydro-2H-pyran-2-yl)oxy)heptanoic acid], the “induction of the eurystomatous mouth form” value in assay [3] (setting [7]) is “regulates adult morphology; also recorded: strongly induce the eurystomatous mouth form”. The dauer induction result with P. pacificus is “inactive in the dauer formation assay”.
On to `C[C@H](CCCC/C=C/C(=O)O)O[C@@H]1O[C@@H](C)[C@H](OC(=O)c2ccc(O)cc2)C[C@H]1O` [hbas#3, (8R)-(3′R-Hydroxy-5′R-(4-hydroxybenzoyloxy)-6′S-methyl-(2H)-tetrahydropyran-2′-yloxy)non-(2E)-enoic acid], for which the “attraction in the spot attraction assay” value in assay [4] (wild-type (N2) hermaphrodites, dose dependent manner) is recorded as “attracted”. For the same compound, the “lowest concentration with strong attraction of C. elegans (as low as)” value in assay [5] is 10 femtomolar.
Turning to `C[C@H](CCCCC(=O)O)O[C@@H]1O[C@@H](C)[C@H](OC(=O)c2c[nH]c3ccccc23)C[C@H]1O` [icas#1], the “attraction in the spot attraction assay” value was “attractive to both C. elegans sexes” in assay [4] (1 pmol, N2 hermaphrodites and him-5 males); “attracted both males and hermaphrodites” in assay [4] (high concentrations, males and hermaphrodites).
Turning to `C[C@H](CCC(=O)O[C@@H](CNC(=O)CCC(=O)O)c1ccccc1)O[C@@H]1O[C@@H](C)[C@H](O)C[C@H]1O` [pasc#9, 4-(((R)-2-(((R)-4-(((2R,3R,5R,6S)-3,5-dihydroxy-6-methyltetrahydro-2H-pyran-2-yl)oxy)pentanoyl)oxy)-2-phenylethyl)amino)-4-oxobutanoic acid], the “induction of the eurystomatous mouth form” value in assay [3] (high concentrations) is on record as “weaker induction of the eurystomatous mouth form”.
`C[C@H](CCC(=O)O)O[C@@H]1O[C@@H](C)[C@H](OC(=O)[C@H](C)CNC(N)=O)C[C@H]1OC(=O)CCCCO[C@@H]1O[C@@H](C)[C@H](O)C[C@H]1O` [ubas#1, (R)-4-(((2R,3R,5R,6S)-3-((5-(((2R,3R,5R,6S)-3,5-dihydroxy-6-methyltetrahydro-2H-pyran-2-yl)oxy)pentanoyl)oxy)-6-methyl-5-(((R)-2-methyl-3-ureidopropanoyl)oxy)tetrahydro-2H-pyran-2-yl)oxy)pentanoic acid]: the “induction of the eurystomatous mouth form” value in assay [3] (setting [7]) is “inactive”.
